# From patent US10073099B2, “Methods and diagnostics for cancer detection and treatment monitoring” (University of New England, priority 2015, dated 2018)
# Where a name gives a salt, the structure may show the parent alone.
# What was measured:
# [1] = system: MPO, Cytochrome P450 reductase; test: MPO and Cytochrome P450 reductase expression and activity after Arginase activity inhibition; format: cell-based; conditions: after Arginase activity inhibition with 5 nM ABH
# Text: FIG. 12A and FIG. 12B present analysis of cytochrome P450 reductase; FIG. 12A presents a graph showing expression; FIG. 12B presents a graph showing activity. #, represents significance from ER+ and control groups; and ^, represents significance from ER−[CA] groups. n=4. P<0.01
# FIG. 13A and FIG. 13B present analysis of MPO; FIG. 13A presents a graph showing expression; FIG. 13B presents a graph showing activity. #, represents significance from ER+ and control groups; and ^, represents significance from ER−[CA] groups. n=4. P<0.01.
# (§1) The following inhibitory tests were performed to determine their role (and/or regulatory effect) on extra-tumoral NOHA accumulation. While NOHA is generated by NOS2 during nitric oxide production, it can be utilized in a NOS2 independent mechanism for nitric oxide generation, that could involve myeloperoxidase (MPO) mediated oxidation or cytochrome P450 reductase mediated pathway. Since NOHA is known to be a strong inhibitor of Arginase, and Arginase increase would favor tumor proliferation, the role of Arginase was also explored.
# ER− 3D spheroids = test: Medium NOHA level of 3D spheroids by ELISA in the presence of inhibitors; format: cell-based
# Description: FIGS. 8A-8D present an analysis of medium NOHA level by ELISA in the presence or absence of inhibitors.
# as §1, with “pathway.” for “pathway. Since NOHA is known to be a strong inhibitor of Arginase, and Arginase increase would favor tumor proliferation, the role of Arginase was also explored.”
# [2] = NOHA stability analysis by ELISA, in vitro medium spiked with NOHA; format: physicochemical; conditions: medium spiked with 75 pg/ml NOHA
# Description: FIG. 6A presents an In Vitro medium NOHA stability analysis based on incubation duration and temperature condition for up to 6 weeks. n=4.
# ELISA Method. 50 μl of NOHA standard sample concentration prepared in Locke's buffer (viz., 10 mM HEPES, 5.6 mM KCl, 154 mM NaCl, 5.6 mM glucose, 1.2 mM MgCl2, 2.3 mM CaCl2, pH 7.4) was mixed with 50 μl of primary NOHA antibody serum (at 1:200 dilution, Pierce Thermo Fisher) and incubated for 30 min at 4° C. The mixture was added to a 96 well plate pre-coated with […] (at 100 pg/ml concentration, in Locke's buffer). The plate was then incubated for 1 hour on a plate-rotator at 500 rpm, at 2-8° C. After incubation, the well content was aspirated, and the wells were washed three times with 200 μl ice-cold wash buffer (10 mM phosphate buffer pH 7.4, 150 mM NaCl, 0.05% Tween 20). 100 μl of enzyme conjugated secondary antibody (at 1:20,000 dilution in wash buffer) was added, and incubated for 1 hour on a plate rotator at 500 rpm, at 2-8° C. At the end of this incubation, the wells were washed again three times with 200 μl ice-cold wash buffer. […] The plates were then read at 450 nm, within 10 min after adding stop solution.
# In vitro medium. To analyze NOHA stability via ELISA assay, medium was spiked with 75 pg/ml of NOHA and NOHA recovery was determined over 6 weeks at different temperatures (viz., −80° C., −20° C., 4° C., 25° C., 37° C. and 42° C.). […]
# [3] = NOHA stability analysis over temperature in extracellular matrix medium of 3D spheroids, LC-MS; format: physicochemical
# Description: Extracellular matrix medium from cancerous and non-cancerous 3D spheroid (viz., 300 μl/spheroid cell line), that was collected on day 7 after spheroid formation were divided in to six (6) equal volumes of 50 μl each. Each of the 50-μl fractions/spheroid cell lines were incubated at −80° C., −20° C., 4° C., 25° C., 37° C. and 42° C. for 1, 3, 5, 7, 10, 12, and 14 days. At the end of the incubation, NOHA level was monitored by LC-MS (Tables 4.1-4.6).
# Those medium samples that were incubated at higher temperature of 42° C. suffered the most with NOHA stability, which lasted for only 3 days (Table 4.4).
# Tables 4.1-4.6: NOHA measurements after incubation at various temperatures
compound,measurement,setting,value
"N[C@@H](CCCCB(O)O)C(=O)O [ABH, 2(s)-amino-6-boronohexanoic acid]",increase in Cytochrome P450 reductase expression and activity,[1],≥ 0.98
same,increase in MPO expression and activity,[1],≥ 1.2 fold
same,change in medium NOHA level,"ER− 3D spheroids; 5 nM ABH, versus absence of ABH",no significant disease specific or ethnic specific change
Clc1ccc(COC(Cn2ccnc2)c2ccc(Cl)cc2Cl)c(Cl)c1 (centres unmarked) [micronazole salt],increase in medium NOHA level,"ER− 3D spheroids; ER−[AA], 10 μM inhibitor, over a 9 week period",≥ 0.79 fold
same,NOHA increase in the medium,"ER− 3D spheroids; ER−[CA], 10 μM inhibitor, over a 9 week period",≥ 0.42 fold
"NC(=NCCC[C@H](N)C(=O)O)NO [NOHA, N^w-hydroxy-L-Arginine]",period over which NOHA was stable,"[2]; 4° C. and below (4, −20, −80° C.)",6 week
same,period over which NOHA maintained stability,"[2]; 25° C., 37° C. and 42° C.",1 week
same,degradation or reduction in NOHA level,"[3]; extracellular matrix medium at 4° C., −20° C., and −80° C., 14-day incubation",no significant degradation or reduction
same,duration of stable NOHA monitoring level,[3]; medium samples incubated at 25° C.,12 days
same,duration of NOHA stability,[3]; medium samples incubated at 42° C.,3 days
same,duration of stable NOHA monitoring,[3]; medium samples stored at 37° C.,up to 7 days
